Assay results taken from ChEMBL document CHEMBL1127964, “N-linked analogs of retinoid O-glucuronides: potential cancer chemopreventive/chemotherapeutic agents” (Bioorg Med Chem Lett, 1994).

Columns and labels:
[1] = species on record: Rattus norvegicus; experiment: Antitumor activity against DMBA-induced mammary tumors in rats; assay type: functional
[2] = molecular target: T1, Retinoic acid receptor gamma (Homo sapiens, UniProt P13631); experiment: Inhibition of [3H]RA to binding Retinoic acid receptor RAR gamma
T1 sequence (P13631 whole entry): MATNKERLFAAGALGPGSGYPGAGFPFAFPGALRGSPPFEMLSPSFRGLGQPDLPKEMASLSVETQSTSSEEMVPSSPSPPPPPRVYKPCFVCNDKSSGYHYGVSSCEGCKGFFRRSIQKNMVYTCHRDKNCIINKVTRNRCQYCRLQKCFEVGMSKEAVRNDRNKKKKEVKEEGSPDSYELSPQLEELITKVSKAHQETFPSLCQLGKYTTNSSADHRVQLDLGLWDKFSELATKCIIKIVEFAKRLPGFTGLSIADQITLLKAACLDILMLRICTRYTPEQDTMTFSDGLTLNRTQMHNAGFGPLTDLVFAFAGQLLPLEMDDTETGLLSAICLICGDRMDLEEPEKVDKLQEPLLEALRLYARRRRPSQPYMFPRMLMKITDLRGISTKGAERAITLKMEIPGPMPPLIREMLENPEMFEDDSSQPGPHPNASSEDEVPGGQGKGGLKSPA

[3] = molecular target: T1, Retinoic acid receptor gamma; experiment: Inhibition of [3H]RA binding to Retinoic acid receptor RAR gamma

SMILES | Tumor [1] [number] | Tumor incidence [1] [%] | Tumor latency [1] [days] | Ki [2] [nM] | Ki [3] [nM]
CC1=C(/C=C/C(C)=C/C=C/C(C)=C/C(=O)NC2OC(CO)C(O)C(O)C2O)C(C)(C)CCC1 (stereo unspecified) | 0.92 | 58 | 64 | 710 | –
CC1=C(/C=C/C(C)=C/C=C/C(C)=C/C(=O)O)C(C)(C)CCC1 [TRETINOIN] | 1.17 | 83 | 49 | – | –
CC1=C(/C=C/C(C)=C/C=C/C(C)=C/C(=O)NC2OC(C(=O)O)C(O)C(O)C2O)C(C)(C)CCC1 (stereo unspecified) | 0.83 | 50 | 64 | – | 280
